Entries after “also recorded” stand apart in the source; their conditions may differ.
Experiments:
[1] = WBC and platelet counts in rats; assay type: in vivo, rat
rat glioma model = settings: TMZ therapy alone, in vivo experiments
Procedure: A study was conducted concerning tumour growth rate in a rat glioma model.

BT4C cell line = assay: in vitro cytotoxicity of TMZ on BT4C cell line; assay type: cell-based
Source text: However, both in vitro and in vivo experiments there were no effect with TMZ therapy alone, implicating that other mechanism of resistance are in operation.
The efficacy of TMZ is known to be affected by different DNA repair activities (Kaina, 2003; Kaina et al., 2007; Parkinson et al., 2008; Takagi et al., 2003; Takagi et al., 2008) and by the presence of functional p53 activity (Blough et al. (2010) J Neurooncol.).

| Structure (SMILES) | WBC counts [1] | platelet counts [1] | effect of therapy in vivo (rat glioma model) | cytotoxicity (BT4C cell line; BT4C cells first treated with AdHSV-tk/GCV, TMZ in high concentration) | effect of treatment in vitro (cytotoxicity) (BT4C cell line; BT4C cells, TMZ alone, up to 1000 μM) |
| --- | --- | --- | --- | --- | --- |
| Cn1nnc2c(C(N)=O)ncn2c1=O [TMZ, Temozolomide] | profound adverse effect | profound adverse effect | no effect | started to demonstrate cytotoxicity | no effect; also recorded: does not respond to the treatment |
| Nc1nc(O)c2ncn(COC(CO)CO)c2n1 [GCV, Ganciclovir] | did not reduce these values significantly | did not reduce these values significantly |  |  |  |
